Data published in patent US20240327415A1, “Multicomponent Complexes, Including Salts, Crystalline Forms, and Hydrates and Solvates of ENT1 Inhibitors” (iTeos Belgium SA, priority 2023, published 2024).

What was measured:
Format in all cases: physicochemical
[1] = salt screen, XRPD of damp, dried and 40° C./75% RH stored samples (Salt Preparation Methods 1 and 2); set-up: key to XRPD Analysis Damp/Dry: A = amorphous; Evap. = isolated via evaporation; details: (evap.)
Procedure: (§1) Salt Preparation Method 1: Approximately 25 mg of Compound 1 (free base) was weighed out into 1.5 mL screw-cap vials and a stirrer bar was added. For solid counterions, the appropriate amount of acid (1.0 or 2.0 equiv.) was weighed into separate 1.5 mL screw-cap vials. 100 μL of the appropriate solvent system was added to both the Compound 1 and the solid counterions. Stock solutions of liquid counterions were prepared, such that 100 μL contained 1.0 or 2.0 equiv. of acid. See counterion and solvent lists in Table 60 and Table 61 respectively.
(§2) The samples were stirred at 40° C. for 5-10 min and then the acid solutions were added to Compound 1, rinsing out the transfer vial with a further 50 μL of solvent. […] Experiments were temperature cycled between 40° C. and 5° C. (1 h hold; 0.1° C./min ramp/cool) for ca. 24-68 h. Anti-solvent addition (ASA) was carried out to slurries at 5° C. then experiments were heated to 30° C. over 1 h. ASA was carried out at 30° C. or 40° C. where clear solutions or gums were observed.
(§3) Temperature cycling was then continued for ca. 16-69 h, followed by further ASA and temperature cycling if required. Material was isolated at 5° C. and analyzed damp by XRPD. All isolated material was dried under vacuum at ca. 40° C. for ca. 17-91 h then re-analyzed by XRPD. The XRPD plate was stored at 40° C./75% RH for 24-48 h and then samples re-analyzed. Solutions were stored uncapped at ambient temperature to evaporate. Any residual solids were analyzed by XRPD.
(§4) Salt Preparation Method 2: The general procedure adopted in preparing the potential salts is outlined below. A known mass of Compound 1 (free base) and a known volume of the appropriate solvent system were added to 20 mL scintillation vials. The required mol. equiv. of the appropriate counterions were added to the vials as solutions or slurries in the corresponding solvent system.
(§5) The experiments were stirred at 40° C. for ca. 1 h, and then temperature cycled between 40° C. and 5° C. with 0.1° C./min ramp and 1 h hold between each step. Anti-solvent additions and subsequent slurrying at 5° C. were employed in order to facilitate crystallization. […] The damp and dried solids were subsampled and analyzed by XRPD. Where applicable, the dried solids were stored at 40° C./75% RH for 24-48 h in order to improve the crystallinity and/or facilitate solid form conversion to the desired form.

[2] = as above; set-up: key: A = amorphous; Evap. = isolated via evaporation
Procedure: as §1, §2, §3, §4, §5

[3] = Variable Humidity X-Ray Powder Diffraction (VH-XRPD); details: Form 3: after extended exposure
Procedure: In the examples below, VH-XRPD analysis was carried out on a Philips X'Pert Pro Multipurpose diffractometer equipped with a humidity chamber. The samples were scanned between 4 and 36° 2θ using Cu K radiation (α1λ=1.54060 Å; α2=1.54443 Å; β=1.39225 Å; α1: α2 ratio=0.5; most, if not all, B radiation is removed from the beam using an X-ray mirror) running in Bragg-Brentano geometry (step size 0.008° 2θ) using 40 kV/40 mA generator settings. Measurements were carried out from 2-90% RH, with a final measurement taken at 40% RH.
VH-XRPD analysis was carried out on a Philips X'Pert Pro Multipurpose diffractometer equipped with a humidity chamber. The samples were scanned between 4 and 36° 2θ using Cu K radiation (α1 λ=1.54060 Å; α2=1.54443 Å; β=1.39225 Å; α1:α2 ratio=0.5; most, if not all, β radiation is removed from the beam using an X-ray mirror) running in Bragg-Brentano geometry (step size 0.008° 2θ) using 40 kV/40 mA generator settings. Measurements were carried out from 6-90% relative humidity (RH), with a final measurement taken at 40% RH.

[4] = Maleic acid, 1 equiv., IPA:H2O (75:25% v/v), AS tBME
[5] = Maleic acid, 1 equiv., Acetonitrile, AS tBME
[6] = Maleic acid, 1 equiv., Ethanol, AS Heptane
[7] = Maleic acid, 1 equiv., Ethyl acetate, AS Heptane
[8] = Maleic acid, 1 equiv., MEK, AS Heptane
[9] = Maleic acid, 1 equiv., THF, AS Heptane
[10] = Methanesulfonic acid, 1 equiv., Ethanol, AS Heptane
[11] = Methanesulfonic acid, 1 equiv., IPA:H2O (75:25% v/v), AS tBME
[12] = Methanesulfonic acid, 1 equiv., Acetonitrile, AS tBME
[13] = Methanesulfonic acid, 1 equiv., Ethyl acetate, AS Heptane
[14] = Methanesulfonic acid, 1 equiv., MEK, AS Heptane
[15] = Methanesulfonic acid, 1 equiv., THF, AS Heptane
[16] = Methanesulfonic acid, 2 equiv., IPA:H2O (75:25% v/v), AS tBME
[17] = Methanesulfonic acid, 2 equiv., Acetonitrile, AS tBME
[18] = Methanesulfonic acid, 2 equiv., Ethanol, AS Heptane
[19] = Methanesulfonic acid, 2 equiv., Ethyl acetate, AS Heptane
[20] = Methanesulfonic acid, 2 equiv., MEK, AS Heptane
[21] = Methanesulfonic acid, 2 equiv., THF, AS Heptane
[22] = p-Toluenesulfonic acid, 1 equiv., Ethanol, AS Heptane
[23] = p-Toluenesulfonic acid, 1 equiv., IPA:H2O (75:25% v/v), AS tBME
[24] = p-Toluenesulfonic acid, 1 equiv., Acetonitrile, AS tBME
[25] = p-Toluenesulfonic acid, 1 equiv., Ethyl acetate, AS Heptane
[26] = p-Toluenesulfonic acid, 1 equiv., MEK, AS Heptane
[27] = p-Toluenesulfonic acid, 1 equiv., THF, AS Heptane
[28] = p-Toluenesulfonic acid, 2 equiv., IPA:H2O (75:25% v/v), AS tBME
[29] = p-Toluenesulfonic acid, 2 equiv., Acetonitrile, AS tBME
[30] = p-Toluenesulfonic acid, 2 equiv., Ethanol, AS Heptane
[31] = p-Toluenesulfonic acid, 2 equiv., Ethyl acetate, AS Heptane
[32] = p-Toluenesulfonic acid, 2 equiv., MEK, AS Heptane
[33] = p-Toluenesulfonic acid, 2 equiv., THF, AS Heptane

SMILES: O=C(O)/C=C\C(=O)O [Maleic acid, 1 equiv.]
- XRPD Analysis Damp/Dry [1, 4]: A (evap.)
- XRPD Analysis 40° C. 75% RH [2, 5]: A
- XRPD Analysis Damp [2, 5]: A
- XRPD Analysis Dry [2, 5]: A
- XRPD Analysis 40° C. 75% RH [2, 6]: A
- XRPD Analysis Damp [2, 6]: A
- XRPD Analysis Dry [2, 6]: A
- XRPD Analysis 40° C. 75% RH [2, 7]: A
- XRPD Analysis Damp [2, 7]: A
- XRPD Analysis Dry [2, 7]: A
- XRPD Analysis 40° C. 75% RH [2, 4]: A
- XRPD Analysis 40° C. 75% RH [2, 8]: A
- XRPD Analysis Damp [2, 8]: A
- XRPD Analysis Dry [2, 8]: A
- XRPD Analysis 40° C. 75% RH [2, 9]: A
- XRPD Analysis Damp [2, 9]: A
- XRPD Analysis Dry [2, 9]: A

SMILES: CS(=O)(=O)O [Methanesulfonic acid, 1 equiv.]
- XRPD Analysis Damp/Dry [1, 10]: A (evap.)
- XRPD Analysis Damp/Dry [1, 11]: A (evap.)
- XRPD Analysis 40° C. 75% RH [2, 12]: A
- XRPD Analysis Damp [2, 12]: A
- XRPD Analysis Dry [2, 12]: A
- XRPD Analysis 40° C. 75% RH [2, 10]: A
- XRPD Analysis 40° C. 75% RH [2, 13]: A
- XRPD Analysis Damp [2, 13]: A
- XRPD Analysis Dry [2, 13]: A
- XRPD Analysis 40° C. 75% RH [2, 11]: A
- XRPD Analysis 40° C. 75% RH [2, 14]: A
- XRPD Analysis Damp [2, 14]: A
- XRPD Analysis Dry [2, 14]: A
- XRPD Analysis 40° C. 75% RH [2, 15]: A
- XRPD Analysis Damp [2, 15]: A
- XRPD Analysis Dry [2, 15]: A

SMILES: CS(=O)(=O)O [Methanesulfonic acid, 2 equiv.]
- XRPD Analysis Damp/Dry [1, 16]: A (evap.)
- XRPD Analysis 40° C. 75% RH [2, 17]: A
- XRPD Analysis Damp [2, 17]: A
- XRPD Analysis Dry [2, 17]: A
- XRPD Analysis 40° C. 75% RH [2, 18]: A
- XRPD Analysis Damp [2, 18]: A
- XRPD Analysis Dry [2, 18]: A
- XRPD Analysis 40° C. 75% RH [2, 19]: A
- XRPD Analysis Damp [2, 19]: A
- XRPD Analysis Dry [2, 19]: A
- XRPD Analysis 40° C. 75% RH [2, 16]: A
- XRPD Analysis 40° C. 75% RH [2, 20]: A
- XRPD Analysis Damp [2, 20]: A
- XRPD Analysis Dry [2, 20]: A
- XRPD Analysis 40° C. 75% RH [2, 21]: A
- XRPD Analysis Damp [2, 21]: A
- XRPD Analysis Dry [2, 21]: A

SMILES: COc1cc(C(=O)O[C@@H]2CCCOc3cc(cc(OC)c3OC)C(=O)NCCCN3CCCN(CC2)CC3)cc(OC)c1OC.O=S(=O)(O)O.O=S(=O)(O)O [crystalline Form 5 Compound 1 di(hydrogen sulfate)]
- relative humidity at which conversion to crystalline Form 2 Compound 1 di(hydrogen sulfate) trihydrate is observed [3]: ≥ 10 % RH

SMILES: Cc1ccc(S(=O)(=O)O)cc1 [p-Toluenesulfonic acid, 1 equiv.]
- XRPD Analysis Damp/Dry [1, 22]: A (evap.)
- XRPD Analysis Damp/Dry [1, 23]: A (evap.)
- XRPD Analysis 40° C. 75% RH [2, 24]: A
- XRPD Analysis Damp [2, 24]: A
- XRPD Analysis Dry [2, 24]: A
- XRPD Analysis 40° C. 75% RH [2, 22]: A
- XRPD Analysis 40° C. 75% RH [2, 25]: A
- XRPD Analysis Damp [2, 25]: A
- XRPD Analysis Dry [2, 25]: A
- XRPD Analysis 40° C. 75% RH [2, 23]: A
- XRPD Analysis 40° C. 75% RH [2, 26]: A
- XRPD Analysis Damp [2, 26]: A
- XRPD Analysis Dry [2, 26]: A
- XRPD Analysis 40° C. 75% RH [2, 27]: A
- XRPD Analysis Damp [2, 27]: A
- XRPD Analysis Dry [2, 27]: A

SMILES: Cc1ccc(S(=O)(=O)O)cc1 [p-Toluenesulfonic acid, 2 equiv.]
- XRPD Analysis Damp/Dry [1, 28]: A (evap.)
- XRPD Analysis 40° C. 75% RH [2, 29]: A
- XRPD Analysis Damp [2, 29]: A
- XRPD Analysis Dry [2, 29]: A
- XRPD Analysis 40° C. 75% RH [2, 30]: A
- XRPD Analysis Damp [2, 30]: A
- XRPD Analysis Dry [2, 30]: A
- XRPD Analysis 40° C. 75% RH [2, 31]: A
- XRPD Analysis Damp [2, 31]: A
- XRPD Analysis Dry [2, 31]: A
- XRPD Analysis 40° C. 75% RH [2, 28]: A
- XRPD Analysis 40° C. 75% RH [2, 32]: A
- XRPD Analysis Damp [2, 32]: A
- XRPD Analysis Dry [2, 32]: A
- XRPD Analysis 40° C. 75% RH [2, 33]: A
- XRPD Analysis Damp [2, 33]: A
- XRPD Analysis Dry [2, 33]: A
